Laboratory results from publication PMC10035947, “Development of novel anilinoquinazoline-based carboxylic acids as non-classical carbonic anhydrase IX and XII inhibitors” (Journal of Enzyme Inhibition and Medicinal Chemistry, 2023).
Read-outs that look alike come from different tables or passages of the source.

Key:
Assay in all cases: NCI SRB assay
Assay type in all cases: cell-based, human
CCRF-CEM = settings: for GI50 / TGI / CC50: 5-dose; for CC50: read-out: LC50 (the source's name)
K-562 = settings: for CC50: read-out: LC50 (the source's name)
MOLT-4 = settings: for CC50: read-out: LC50 (the source's name)
EKVX = settings: for GI50 / LC50 (concentration killing 50% of cells) / TGI: 5-dose
HOP-62 = system: HOP-62
NCI-H226 = system: NCI-H226
NCI-H23 = system: NCI-H23
NCI-H322M = settings: for CC50: read-out: LC50 (the source's name)
NCI-H460 = system: NCI-H460
HCT-116 = settings: for CC50: read-out: LC50 (the source's name)
HT29 = system: HT29
KM12 = system: KM12
SF-268 = settings: for CC50: read-out: LC50 (the source's name)
SF-295 = system: SF-295
SNB-19 = settings: for CC50: read-out: LC50 (the source's name)
SNB-75 = system: SNB-75
[1] = Homo sapiens, K562, K-562, 5-dose
[2] = Homo sapiens, HT-29, HT29, 5-dose
[3] = Homo sapiens, KM12, KM 12, 5-dose
[4] = Homo sapiens, SNB-19, SNB-19, 5-dose

Cc1ccc(-c2nc(Nc3ccccc3C(=O)O)c3ccccc3n2)cc1 [6b, 2-((2-(p-Tolyl)quinazolin-4-yl)amino)benzoic acid]
GI% (CCRF-CEM; 10 μM): 87%
Growth Percent (CCRF-CEM; 1.00E-5 Molar): 12.80%
GI50 (CCRF-CEM): 5.7 µM
TGI (CCRF-CEM): <100 µM
TGI (CCRF-CEM; listed as D - 835857): > 1.00E-4 Molar
CC50 (CCRF-CEM): < 100 µM
GI50 (CCRF-CEM; Homo sapiens): 5.72 µM
CC50 (CCRF-CEM; Homo sapiens): > 100 µM
GI50 (K-562; [1]): 7.05 µM
CC50 (K-562; [1]): > 100 µM
GI% (K-562; K-562, 10 μM): 82%
Growth Percent (K-562; K-562, 1.00E-5 Molar): 17.64%
TGI (K-562; K-562, 5-dose): <100 µM
TGI (K-562; K-562, 5-dose, listed as D - 835857): > 1.00E-4 Molar
CC50 (K-562; K-562, 5-dose): < 100 µM
CC50 (MOLT-4; Homo sapiens, MOLT-4, MOLT-4, 5-dose): > 100 µM
GI50 (MOLT-4; Homo sapiens, MOLT-4, 5-dose): 11.7 µM
GI% (MOLT-4; MOLT-4, 10 μM): 89%
Growth Percent (MOLT-4; MOLT-4, 1.00E-5 Molar): 10.91%
TGI (MOLT-4; MOLT-4, 5-dose): <100 µM
TGI (MOLT-4; MOLT-4, 5-dose, listed as D - 835857): > 1.00E-4 Molar
CC50 (MOLT-4; MOLT-4, 5-dose): < 100 µM
GI% (EKVX; 10 μM): 87%
Growth Percent (EKVX; 1.00E-5 Molar): 13.07%
GI50 (EKVX): 8.9 µM
LC50 (concentration killing 50% of cells) (EKVX): < 100 µM
TGI (EKVX): 56.2 µM
TGI (EKVX; listed as D - 835857): 5.62E-5 Molar
GI50 (EKVX; Homo sapiens): 8.89 µM
LC50 (concentration killing 50% of cells) (EKVX; Homo sapiens): > 100 µM
GI% (HOP-62; HOP-62, 10 μM): 72%
Growth Percent (HOP-62; HOP-62, 1.00E-5 Molar): 28.29%
LC50 (HOP-62; HOP-62, 5-dose): < 100 µM
TGI (HOP-62; HOP-62, 5-dose): 33.7 µM
TGI (HOP-62; HOP-62, 5-dose, listed as D - 835857): 3.37E-5 Molar
LC50 (HOP-62; Homo sapiens, HOP-62, HOP-62, 5-dose): > 100 µM
GI50 (HOP-62; Homo sapiens, HOP-62, 5-dose): 10.8 µM
LC50 (NCI-H226; Homo sapiens, NCI-H226, NCI-H226, 5-dose): > 100 µM
GI50 (NCI-H226; Homo sapiens, NCI-H226, 5-dose): 10.2 µM
GI% (NCI-H226; NCI-H226, 10 μM): 85%
Growth Percent (NCI-H226; NCI-H226, 1.00E-5 Molar): 15.34%
LC50 (NCI-H226; NCI-H226, 5-dose): < 100 µM
TGI (NCI-H226; NCI-H226, 5-dose): 54.2 µM
TGI (NCI-H226; NCI-H226, 5-dose, listed as D - 835857): 5.42E-5 Molar
LC50 (NCI-H23; Homo sapiens, NCI-H23, NCI-H23, 5-dose): > 100 µM
GI50 (NCI-H23; Homo sapiens, NCI-H23, 5-dose): 15.7 µM
GI% (NCI-H23; NCI-H23, 10 μM): 104%
Growth Percent (NCI-H23; NCI-H23, 1.00E-5 Molar): -4.11%
LC50 (NCI-H23; NCI-H23, 5-dose): < 100 µM
TGI (NCI-H23; NCI-H23, 5-dose): 44.4 µM
TGI (NCI-H23; NCI-H23, 5-dose, listed as D - 835857): 4.44E-5 Molar
GI% (NCI-H322M; 10 μM): 66%
Growth Percent (NCI-H322M; 1.00E-5 Molar): 33.77%
TGI (NCI-H322M; 5-dose): <100 µM
TGI (NCI-H322M; 5-dose, listed as D - 835857): > 1.00E-4 Molar
CC50 (NCI-H322M; 5-dose): < 100 µM
GI50 (NCI-H322M; Homo sapiens, 5-dose): 13.6 µM
CC50 (NCI-H322M; Homo sapiens, 5-dose): > 100 µM
GI50 (NCI-H460; Homo sapiens, NCI-H460, NCI-H460, 5-dose): 8.52 µM
LC50 (concentration giving 50% net cell kill) (NCI-H460; Homo sapiens, NCI-H460, 5-dose): 84 µM
GI% (NCI-H460; NCI-H460, 10 μM): 109%
Growth Percent (NCI-H460; NCI-H460, 1.00E-5 Molar): -9.44%
GI50 (NCI-H460; NCI-H460, 5-dose): 8.5 µM
TGI (NCI-H460; NCI-H460, 5-dose): 27.7 µM
TGI (NCI-H460; NCI-H460, 5-dose, listed as D - 835857): 2.77E-5 Molar
GI% (HCT-116; HCT-116, 10 μM): 93%
Growth Percent (HCT-116; HCT-116, 1.00E-5 Molar): 6.70%
TGI (HCT-116; HCT-116, 5-dose): 36.1 µM
TGI (HCT-116; HCT-116, 5-dose, listed as D - 835857): 3.61E-5 Molar
CC50 (HCT-116; HCT-116, 5-dose): < 100 µM
CC50 (HCT-116; Homo sapiens, HCT-116, HCT-116, 5-dose): > 100 µM
GI50 (HCT-116; Homo sapiens, HCT-116, 5-dose): 10.1 µM
GI% (HT29; HT29, 10 μM): 82%
Growth Percent (HT29; HT29, 1.00E-5 Molar): 17.79%
LC50 (50% lethal concentration) (HT29; HT29, 5-dose): < 100 µM
TGI (HT29; HT29, 5-dose): <100 µM
TGI (HT29; HT29, 5-dose, listed as D - 835857): > 1.00E-4 Molar
GI50 (HT29; [2]): 17.9 µM
LC50 (50% lethal concentration) (HT29; [2]): > 100 µM
LC50 (KM12; [3]): < 100 µM
LC50 (KM12; Homo sapiens, KM12, KM12, 5-dose): > 100 µM
GI50 (KM12; [3]): 13.7 µM
GI% (KM12; KM12, 10 μM): 92%
Growth Percent (KM12; KM12, 1.00E-5 Molar): 8.37%
TGI (KM12; KM 12, 5-dose): 81.2 µM
TGI (KM12; KM12, 5-dose): 8.12E-5 Molar
CC50 (SF-268; Homo sapiens, SF-268, SF-268, 5-dose): > 100 µM
GI50 (SF-268; Homo sapiens, SF-268, 5-dose): 14.3 µM
GI% (SF-268; SF-268, 10 μM): 89%
Growth Percent (SF-268; SF-268, 1.00E-5 Molar): 11.24%
TGI (SF-268; SF-268, 5-dose): <100 µM
TGI (SF-268; SF-268, 5-dose, listed as D - 835857): > 1.00E-4 Molar
CC50 (SF-268; SF-268, 5-dose): < 100 µM
GI50 (SF-295; Homo sapiens, SF-295, 5-dose): 7.04 µM
CC50 (SF-295; Homo sapiens, SF-295, 5-dose, read-out: LC50 (the source's name)): 86 µM
GI% (SF-295; SF-295, 10 μM): 94%
Growth Percent (SF-295; SF-295, 1.00E-5 Molar): 5.81%
TGI (SF-295; SF-295, 5-dose): 27.0 µM
TGI (SF-295; SF-295, 5-dose, listed as D - 835857): 2.70E-5 Molar
GI50 (SNB-19; [4]): 8.09 µM
CC50 (SNB-19; [4]): > 100 µM
GI% (SNB-19; SNB-19, 10 μM): 91%
Growth Percent (SNB-19; SNB-19, 1.00E-5 Molar): 8.82%
GI50 (SNB-19; SNB-19, 5-dose): 8.1 µM
TGI (SNB-19; SNB-19, 5-dose): 81.7 µM
TGI (SNB-19; SNB-19, 5-dose, listed as D - 835857): 8.17E-5 Molar
CC50 (SNB-19; SNB-19, 5-dose): < 100 µM
GI50 (SNB-75; Homo sapiens, SNB-75, SNB-75, 5-dose): 1.36 µM
CC50 (SNB-75; Homo sapiens, SNB-75, SNB-75, 5-dose, read-out: LC50 (the source's name)): > 100 µM
GI% (SNB-75; SNB-75, 10 μM): 84%
Growth Percent (SNB-75; SNB-75, 1.00E-5 Molar): 15.71%
